Measurements: the supplement of paper PMC10307832

Experiments:
Assay in all cases: relative viability (nuclei count vs DMSO), 5 days (fraction); higher = more cells survive
Midostaurin + Luminespib = compound: CO[C@@H]1[C@H](N(C)C(=O)c2ccccc2)C[C@H]2O[C@]1(C)n1c3ccccc3c3c4c(c5c6ccccc6n2c5c31)C(=O)NC4 [Midostaurin] + CCNC(=O)c1noc(-c2cc(C(C)C)c(O)cc2O)c1-c1ccc(CN2CCOCC2)cc1 [Luminespib] (partner 0.01 µM)
How it was run: (§1)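 For relative viability, nuclei counts in treated wells were divided by those in vehicle wells. Lung cancer cell lines had been pin-tool dosed in 1536-well plates the day after seeding and cultured for 5 days, then fixed and stained in one step (final 0.05% Triton X-100, 1% formaldehyde, 1 ug/ml Hoechst) and imaged at 4×. Doses were one drug alone or a fixed anchor-drug dose plus five library-drug doses (not always all listed) in √10 steps, and values are duplicate-plate medians.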

Midostaurin + OSI-027 = compound: CO[C@@H]1[C@H](N(C)C(=O)c2ccccc2)C[C@H]2O[C@]1(C)n1c3ccccc3c3c4c(c5c6ccccc6n2c5c31)C(=O)NC4 [Midostaurin] + COc1cccc2cc(-c3nc([C@H]4CC[C@H](C(=O)O)CC4)n4ncnc(N)c34)[nH]c12 [OSI-027] (partner 0.5 µM)
How it was run: as §1

Midostaurin + Dasatinib = compound: CO[C@@H]1[C@H](N(C)C(=O)c2ccccc2)C[C@H]2O[C@]1(C)n1c3ccccc3c3c4c(c5c6ccccc6n2c5c31)C(=O)NC4 [Midostaurin] + Cc1nc(Nc2ncc(C(=O)Nc3c(C)cccc3Cl)s2)cc(N2CCN(CCO)CC2)n1 [Dasatinib] (partner 0.075 µM)
How it was run: as §1

[1] = compound: COc1cc(-c2nn([C@H]3CC[C@H](N4CCN(C(C)=O)CC4)CC3)c3ncnc(N)c23)ccc1NC(=O)c1cc2ccccc2n1C + CC(=O)c1c(C)c2cnc(Nc3ccc(N4CCNCC4)cn3)nc2n(C2CCCC2)c1=O [Palbociclib] (partner 0.5 µM)
How it was run: as §1

[2] = compound: COc1cc(-c2nn([C@H]3CC[C@H](N4CCN(C(C)=O)CC4)CC3)c3ncnc(N)c23)ccc1NC(=O)c1cc2ccccc2n1C + O=C(CCCCCCC(=O)Nc1ccccc1)NO [Vorinostat] (partner 1 µM)
How it was run: as §1

## UMC-11
Midostaurin + Luminespib; first compound 0.01 µM
  relative viability: 1.02
Midostaurin + Luminespib; first compound 0.03162 µM
  relative viability: 0.849
Midostaurin + Luminespib; first compound 0.1 µM
  relative viability: 0.932
Midostaurin + Luminespib; first compound 0.3162 µM
  relative viability: 0.463
Midostaurin + OSI-027; first compound 0.01 µM
  relative viability: 0.473
Midostaurin + OSI-027; first compound 0.03162 µM
  relative viability: 0.463
Midostaurin + OSI-027; first compound 0.1 µM
  relative viability: 0.536
Midostaurin + OSI-027; first compound 0.3162 µM
  relative viability: 0.293
Midostaurin + Dasatinib; first compound 0.01 µM
  relative viability: 0.362
Midostaurin + Dasatinib; first compound 0.03162 µM
  relative viability: 0.403
Midostaurin + Dasatinib; first compound 0.1 µM
  relative viability: 0.444
Midostaurin + Dasatinib; first compound 0.3162 µM
  relative viability: 0.344
[1]; first compound 0.0128 µM
  relative viability: 0.349
[1]; first compound 0.04048 µM
  relative viability: 0.341
[1]; first compound 0.128 µM
  relative viability: 0.335
[1]; first compound 1.28 µM
  relative viability: 0.341
[2]; first compound 0.0128 µM
  relative viability: 0.44
[2]; first compound 0.04048 µM
  relative viability: 0.38
[2]; first compound 0.128 µM
  relative viability: 0.351
[2]; first compound 1.28 µM
  relative viability: 0.342
